Results published in ChEMBL document CHEMBL4480419, “Design and molecular modeling of novel P38α MAPK inhibitors targeting breast cancer, synthesized from oxygen heterocyclic natural compounds” (Bioorg Med Chem, 2019).
Calls of active or inactive are those of the source. The rule behind the calls is not given here.

How the values were obtained:
[1] = test system: MCF7; experiment: Antiproliferative activity against human MCF7 cells after 72 hrs by MTT assay; assay type: functional, cell-based; details: MCF7, 72 h
[2] = test system: MDA-MB-231; experiment: Antiproliferative activity against human MDA231 cells after 72 hrs by MTT assay; assay type: functional, cell-based; details: MDA-MB-231, 72 h
[3] = target: MAP kinase p38 (Homo sapiens, UniProt O15264+Q15759+Q16539+P53778); experiment: Inhibition of p38alpha MAPK (unknown origin) using ATF-2 as substrate after 1 hr by ELISA; assay type: protein assay
[4] = test system: MCF7; experiment: Induction of apoptosis in human MCF7 cells assessed as increase in caspase-7 activity by ELISA; assay type: functional, cell-based
[5] = test system: MCF7; experiment: Cell cycle arrest in human MCF7 cells assessed as accumulation of cells at S phase after 48 hrs by propidium iodide staining-based flow cytometric analysis (reference value: 39.38%); assay type: functional
[6] = test system: MCF7; experiment: Cell cycle arrest in human MCF7 cells assessed as accumulation of cells at G2/M phase after 48 hrs by propidium iodide staining-based flow cytometric analysis (reference value: 6.68%); assay type: functional
[7] = test system: MCF7; experiment: Induction of apoptosis in human MCF7 cells assessed as necrotic cells after 48 hrs by Annexin V-FITC/propidium iodide staining-based flow cytometric analysis (reference value: 0.34%); assay type: functional
[8] = test system: MCF7; experiment: Cell cycle arrest in human MCF7 cells assessed as accumulation of cells at preG phase after 48 hrs by propidium iodide staining-based flow cytometric analysis (reference value: 1.71%); assay type: functional
[9] = test system: MCF7; experiment: Induction of apoptosis in human MCF7 cells assessed as early apoptotic cells after 48 hrs by Annexin V-FITC/propidium iodide staining-based flow cytometric analysis (reference value: 0.85%); assay type: functional
[10] = test system: MCF7; experiment: Induction of apoptosis in human MCF7 cells assessed as late apoptotic cells after 48 hrs by Annexin V-FITC/propidium iodide staining-based flow cytometric analysis (reference value: 0.52%); assay type: functional
[11] = test system: MCF7; experiment: Cell cycle arrest in human MCF7 cells assessed as accumulation of cells at G1 phase after 48 hrs by propidium iodide staining-based flow cytometric analysis (reference value: 53.94%); assay type: functional
[12] = test system: MCF7; experiment: Induction of apoptosis in human MCF7 cells assessed as increase in caspase-7 mRNA expression after 48 hrs by RT-PCR analysis; assay type: functional, cell-based

SMILES: Cc1cc(=O)c2c(OCc3nnc(S)s3)c3ccoc3cc2o1
- IC50 [1]: 1.65 µM
- IC50 [2]: 7.07 µM

SMILES: CS(=O)(=O)CCNCc1ccc(-c2ccc3ncnc(Nc4ccc(OCc5cccc(F)c5)c(Cl)c4)c3c2)o1 [LAPATINIB]
- IC50 [1]: 4.69 µM
- IC50 [2]: 4.69 µM

SMILES: Cc1cc(=O)c2c(OCC(=O)NNC(=S)Nc3ccccc3)c3ccoc3cc2o1
- IC50 [1]: 2.44 µM
- IC50 [2]: > 100 µM

SMILES: COc1c(-c2cc(-c3ccc(C)o3)[nH]c(=S)n2)c(O)c(Br)c2occc12
- IC50 [1]: 1.51 µM
- IC50 [2]: 2 µM

SMILES: COc1c(C(=O)/C=C/c2ccc(C)o2)c(O)c(Br)c2occc12
- IC50 [3]: 0.041 µM
- IC50 [1]: 1.36 µM
- IC50 [2]: 2.1 µM

SMILES: COc1c(-c2cc(-c3ccc(C)o3)[nH]c(=O)n2)c(O)c(Br)c2occc12
- IC50 [1]: 1.94 µM
- IC50 [2]: 1.23 µM

SMILES: COc1c(-c2cc(-c3ccc(C)o3)[nH]c(=S)n2)c(O)c(CN2CCCCC2)c2occc12
- IC50 [1]: > 100 µM
- IC50 [2]: > 100 µM

SMILES: COc1c(-c2cc(-c3ccc(C)o3)[nH]c(=S)n2)c(O)c(CN2CCN(C)CC2)c2occc12
- IC50 [1]: 5.81 µM
- IC50 [2]: > 100 µM

SMILES: Cc1cc(=O)c2c(OCc3nnc(SCCN4CCOCC4)o3)c3ccoc3cc2o1
- IC50 [1]: 3.82 µM
- IC50 [2]: 8.74 µM

SMILES: COc1c(-c2cc(-c3ccc(C)o3)[nH]c(=S)n2)c(O)c(CN2CCOCC2)c2occc12
- IC50 [1]: 7.14 µM
- IC50 [2]: > 100 µM

SMILES: Cc1cc(=O)c2c(OCc3nnc(S)o3)c3ccoc3cc2o1
- IC50 [1]: 13.2 µM
- IC50 [2]: 12.4 µM

SMILES: Cc1cc(C)n(C(=O)COc2c3ccoc3cc3oc(C)cc(=O)c23)n1
- IC50 [1]: 2.5 µM
- IC50 [2]: > 100 µM

SMILES: COc1c(-c2cc(-c3ccc(C)o3)c(C#N)c(N)n2)c(O)c(Br)c2occc12
- IC50 [3]: 0.04 µM
- Activity [4]: Active
- Activity [5]: 34.81%
- Activity [6]: 23.63%
- Activity [7]: 2.13%
- Activity [8]: 16.69%
- Activity [9]: 5.36%
- IC50 [1]: 1.19 µM
- Activity [10]: 9.2%
- IC50 [2]: 2.65 µM
- Activity [11]: 41.56%
- Activity [12]: Active

SMILES: Cc1cc(=O)c2c(OCc3nnc(SCCN4CCOCC4)s3)c3ccoc3cc2o1
- IC50 [1]: 2.78 µM
- IC50 [2]: > 100 µM

SMILES: COc1c(C(=O)/C=C/c2ccc(C)o2)c(O)c(CN2CCN(C)CC2)c2occc12
- IC50 [1]: 4.86 µM
- IC50 [2]: > 100 µM

SMILES: COc1c(C(=O)/C=C/c2ccc(C)o2)c(O)c(CN2CCOCC2)c2occc12
- IC50 [1]: > 100 µM
- IC50 [2]: > 100 µM

SMILES: COc1c(C(=O)/C=C/c2ccc(C)o2)c(O)c(CN2CCCCC2)c2occc12
- IC50 [1]: > 100 µM
- IC50 [2]: > 100 µM
